Reference: US9670201B2, “Methyl- and trifluoromethyl-substituted pyrrolopyridine modulators of RORC2 and methods of use thereof” (Pfizer Inc., priority 2014, dated 2017)

Molecular target: RORC2 ligand binding domain (6-His-RORC2 LBD) (Homo sapiens (Human), UniProt P51449)
Assay: Co-activator recruitment by TR-FRET
Type: biochemical
Conditions: 6-His-RORC2 LBD / SRC1-2 coactivator peptide, Table 1

RORC2 ligand binding domain (6-His-RORC2 LBD), sequence (P51449 269-508): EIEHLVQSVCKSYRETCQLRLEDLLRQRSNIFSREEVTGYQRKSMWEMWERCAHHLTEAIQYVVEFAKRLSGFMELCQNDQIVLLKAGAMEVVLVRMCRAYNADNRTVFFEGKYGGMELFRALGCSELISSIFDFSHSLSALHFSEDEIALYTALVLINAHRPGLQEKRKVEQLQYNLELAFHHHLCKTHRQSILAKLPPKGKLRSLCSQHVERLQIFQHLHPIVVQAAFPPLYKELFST

Structure (SMILES)	IC50 [nM]
CC(C(=O)N1CCC(c2cn(C)c3ncc(NC(=O)c4cccc(C#N)c4)c(C(F)(F)F)c23)CC1)C1CC1 (racemic) [Example 25, Rac-3-cyano-N-(3-(1-(2-cyclopropylpropanoyl)piperidin-4-yl)-1-methyl-4-(trifluoromethyl)-1H-pyrrolo[2,3-b]pyridin-5-yl)benzamide]	5.8
Cc1c(NC(=O)c2cccc(C#N)c2)cnc2c1c([C@H]1C[C@H](C)N(C(=O)C3CCCC3)C[C@H]1C)cn2C (relative stereo) [Example 97, rel-3-cyano-N-(3-((2S,4S,5S)-1-(cyclopentanecarbonyl)-2,5-dimethylpiperidin-4-yl)-1,4-dimethyl-1H-pyrrolo[2,3-b]pyridin-5-yl)benzamide]	18.6
Cn1cc(C2CCN(C(=O)[C@H]3CCCS3)CC2)c2c(C(F)(F)F)c(NC(=O)c3cccc(C#N)c3)cnc21 (single isomer, unassigned) [Example 28]	7.1
Cn1cc(C2CCN(C(=O)[C@@H]3CCCS3)CC2)c2c(C(F)(F)F)c(NC(=O)c3cccc(C#N)c3)cnc21 (single isomer, unassigned) [Example 29]	0.9
Cc1c(NC(=O)c2cccc(C#N)c2)cnc2c1c(C1CCN(C(=O)[C@H]3CCC[C@@H]3C)CC1)cn2C (single isomer, unassigned) [Example 46]	16.4
Cc1c(NC(=O)c2cccc(C#N)c2)cnc2c1c(C1CCN(C(=O)[C@@H]3CCC[C@H]3C)CC1)cn2C (single isomer, unassigned) [Example 47]	10.1
Cc1c(NC(=O)c2cccc(C#N)c2)cnc2c1c(C1CCN(C(=O)[C@@H]3CCC[C@H]3C(C)C)CC1)cn2C (single isomer, unassigned) [Example 49]	6.2
Cn1cc(C2CCN(C(=O)C3CCCC3)CC2)c2c(C(F)(F)F)c(NC(=O)c3ccc(F)c(C#N)c3)cnc21 [Example 3, 3-cyano-N-(3-(1-(cyclopentanecarbonyl)piperidin-4-yl)-1-methyl-4-(trifluoromethyl)-1H-pyrrolo[2,3-b]pyridin-5-yl)-4-fluorobenzamide]	3.2
CC(C)C(=O)N1CCC(c2cn(C)c3ncc(NC(=O)c4ccc(F)c(C#N)c4)c(C(F)(F)F)c23)CC1 [Example 9, 3-cyano-4-fluoro-N-(3-(1-isobutyrylpiperidin-4-yl)-1-methyl-4-(trifluoromethyl)-1H-pyrrolo[2,3-b]pyridin-5-yl)benzamide]	5.4
COc1ccc(C(=O)Nc2cnc3c(c(C4CCN(C(=O)C(C)C)CC4)cn3C)c2C(F)(F)F)cc1Cl [Example 10, 3-chloro-N-(3-(1-isobutyrylpiperidin-4-yl)-1-methyl-4-(trifluoromethyl)-1H-pyrrolo[2,3-b]pyridin-5-yl)-4-methoxybenzamide]	3.5
CC(C)C(=O)N1CCC(c2cn(C)c3ncc(NC(=O)c4ccc(Cl)c(C#N)c4)c(C(F)(F)F)c23)CC1 [Example 11, 4-chloro-3-cyano-N-(3-(1-isobutyrylpiperidin-4-yl)-1-methyl-4-(trifluoromethyl)-1H-pyrrolo[2,3-b]pyridin-5-yl)benzamide]	1.5
CC(C)C(=O)N1CCC(c2cn(C)c3ncc(NC(=O)c4ccc(F)c(Cl)c4)c(C(F)(F)F)c23)CC1 [Example 12, 3-chloro-4-fluoro-N-(3-(1-isobutyrylpiperidin-4-yl)-1-methyl-4-(trifluoromethyl)-1H-pyrrolo[2,3-b]pyridin-5-yl)benzamide]	11.8
COc1cc(Cl)cc(C(=O)Nc2cnc3c(c(C4CCN(C(=O)C(C)C)CC4)cn3C)c2C(F)(F)F)c1 [Example 13, 3-chloro-N-(3-(1-isobutyrylpiperidin-4-yl)-1-methyl-4-(trifluoromethyl)-1H-pyrrolo[2,3-b]pyridin-5-yl)-5-methoxybenzamide]	5
